Data on 30 molecules can be found in publication PMC7796187, “New Bioactive Peptides Identified from a Tilapia Byproduct Hydrolysate Exerting Effects on DPP-IV Activity and Intestinal Hormones Regulation after Canine Gastrointestinal Simulated Digestion” (Molecules, 2020).

One experiment deals with T1, Caco-2 DPP-IV activity (Homo sapiens, UniProt P27487).
T1 construct: In situ method using confluent Caco-2 cells described by Caron et al. was slightly modified and used to study DPP-IV activity; host or cells: Caco-2 cells, live and confluent, 7 days after seeding
In words: In situ DPP-IV activity inhibition using live confluent Caco-2 cells (Gly-Pro-AMC substrate). The format is cell-based. The settings on record: synthetic peptides identified in basolateral side, read-out: In Situ IC50 (DPP-IV inhibitory activity). The protocol: (§1) Cells were grown in flask of 75 cm^2 at 37 °C, 5% CO2 atmosphere in DMEM supplemented with 4.5 g L^−1 of glucose, 10% of fetal bovine serum, 100 U mL^−1 of penicillin, 100 µg mL^−1 of streptomycin and 2 mM of L-glutamine. Caco-2 and STC-1 cells were weekly and twice a week subcultured, respectively. All cells used in this study were between the 40 and the 50 passages for Caco-2 cells and between the 10 and 30 passages for STC-1 cells.
In situ method using confluent Caco-2 cells described by Caron et al. was slightly modified and used to study DPP-IV activity. A 1 mM (Gly-Pro-AMC) substrate solution, the digests and the synthetic peptides dilutions were prepared in phosphate saline buffer pH 7.4 (PBS). Briefly, after 7 days of growth, Caco-2 cells were trypsinized and seeded at a density of 8000 cells/well in 96-well optical black plates (Nunc, ThermoFisher Scientific, Rochester, NY, USA). After 7 days, culture media were removed from wells and the cells were washed with 100 µL of PBS buffer (pH 7.4). […] After 5 min of incubation at 37 °C, 50 µL of (Gly-Pro-AMC) substrate solution were added to each well. Fluorescence was recorded every 2 min for 1 h at 37 °C using a Xenius XC spectrofluorometer (Safas Monaco, Monaco). Excitation wavelength was set to […] while the emission wavelength was of 480 nm. The percentage of the DPP-IV activity inhibition was defined as the percentage of DPP-IV activity inhibited by a given concentration of digest or diprotin A (commercial DPP-IV peptide inhibitor) as positive control compared with control buffer response. […] IC50 was expressed in mg mL^−1 or in mM.

Another experiment has as its system DPP-IV. In words: In vitro (biochemical) DPP-IV inhibitory activity test. The settings on record: synthetic peptides identified in basolateral side.
Experiment [1] deals with EECs. The settings on record: cited from earlier work.
In another experiment the test system is murine GLUTag cells. Details: method as in earlier work. The settings on record: α-actinin-2 sequences; cited from earlier work.
For experiment [2], the system named is STC-1 cells. In words: Active GLP-1 secretion in STC-1 cells, radioimmunoassay of supernatant. To be noted: 1 mM, 2 h, versus buffer control. In kind it is cell-based. The protocol:
as §1, with “The Caco-2 cell line was purchased from Sigma-Aldrich (Villefranche-sur-Saône, France) and the STC-1 cell line was a grateful gift received from Corinne Grangette (Univ. Lille, CNRS, Inserm, CHU Lille, Institut Pasteur de Lille, U1019-UMR 8204-CIIL, France). Cells” for “Cells”
When 80–90% confluence was reached, STC-1 cells were trypsinized and seeded at a density of 40,000 cells/well in 24-wells culture plates (ThermoFisher Scientific, Saint Aubin, France) allowing to reach 60–80% confluence. Cell culture medium was removed from each well and cells were washed with phosphate saline buffer (PBS, 10 mM, pH 7.4). 250 µL of digests (2 to 10 mg mL^−1) or synthetic peptides (1 mM) diluted in Hepes buffer (4.5 mM KCl, 1.2 mM CaCl2, 140 mM NaCl and 20 mM Hepes, pH 7.4) were then added. Hepes buffer was used as a negative control. […]

Experiment [3] concerns EECs. Details: method as in PMID 28460928, doi:10.1016/j.jff.2017.06.047. The settings on record: hemorphins from bovine hemoglobin digestion; cited from earlier work.
Experiment [4] concerns STC-1 cells. Details: method as in PMID 32516710. To be noted: peptides from egg white SGID intestinal digest; cited from earlier work.
[5] abbreviates: sequences from bovine hemoglobin intestinal digest.
Setting [6] is: hemorphins from bovine hemoglobin digestion.
Setting [7] is: egg white protein digest peptides.

pIC50: −log10 of the molar value. Where two headings read alike, the source gives them in different places. Where a SMILES comes first, the peptide text is derived from it. Where no end group is shown, it is not given here. Bounds are passed on as bounds.

As a reminder, the pIC50 is −log10 of the IC50, conventionally taken in molar units.

T1 sequence (P27487 whole entry): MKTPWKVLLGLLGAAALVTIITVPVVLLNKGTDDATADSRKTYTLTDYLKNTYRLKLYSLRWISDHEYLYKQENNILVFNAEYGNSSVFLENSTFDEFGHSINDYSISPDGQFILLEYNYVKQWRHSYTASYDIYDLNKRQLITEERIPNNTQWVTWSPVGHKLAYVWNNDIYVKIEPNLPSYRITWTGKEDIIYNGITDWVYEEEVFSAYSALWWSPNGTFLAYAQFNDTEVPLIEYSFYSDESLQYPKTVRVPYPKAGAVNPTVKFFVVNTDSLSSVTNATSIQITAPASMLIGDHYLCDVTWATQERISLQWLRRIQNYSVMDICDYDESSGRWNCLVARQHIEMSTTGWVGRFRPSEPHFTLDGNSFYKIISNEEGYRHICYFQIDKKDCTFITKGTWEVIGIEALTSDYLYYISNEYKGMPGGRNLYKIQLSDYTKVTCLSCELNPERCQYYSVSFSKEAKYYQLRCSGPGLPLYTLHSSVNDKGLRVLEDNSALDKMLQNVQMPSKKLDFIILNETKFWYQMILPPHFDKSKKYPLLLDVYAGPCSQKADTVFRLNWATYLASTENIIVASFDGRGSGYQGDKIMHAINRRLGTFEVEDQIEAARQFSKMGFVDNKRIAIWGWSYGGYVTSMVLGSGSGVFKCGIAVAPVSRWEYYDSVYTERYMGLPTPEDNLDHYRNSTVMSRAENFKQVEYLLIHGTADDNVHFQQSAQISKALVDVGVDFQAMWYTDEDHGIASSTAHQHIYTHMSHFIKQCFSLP

Regarding `CC(C)C[C@H](NC(=O)[C@@H]1CCCN1C(=O)[C@@H](N)CC(=O)O)C(=O)N[C@H](C(=O)O)C(C)C` [DPLV] (H-DPLV-OH), at Caco-2 DPP-IV activity, the negative-log IC50 (pIC50) is less than 2.60. On to `C[C@@H](O)[C@H](NC(=O)[C@H](CC(=O)O)NC(=O)[C@@H](N)CCC(=O)O)C(=O)N[C@@H](Cc1ccc(O)cc1)C(=O)O` [EDTY] (H-EDTY-OH; N-terminus and C-terminus assumed), for which the pIC50 on Caco-2 DPP-IV activity and in the experiment on DPP-IV was less than 2.60 in each case. As to `C[C@@H](O)[C@H](NC(=O)[C@H](Cc1ccc(O)cc1)NC(=O)[C@H](CC(=O)O)NC(=O)[C@@H](N)CCC(=O)O)C(=O)O` [EDYT] (H-EDYT-OH; N-terminus and C-terminus assumed), the pIC50 at Caco-2 DPP-IV activity and with DPP-IV was less than 2.60 in each case. `CC(C)C[C@H](NC(=O)[C@H](CC(=O)O)NC(=O)[C@@H]1CCCN1)C(=O)N[C@H](C(=O)O)C(C)C` [PDLV] (H-PDLV-OH): the negative logarithm of the IC50 (pIC50) at Caco-2 DPP-IV activity was less than 2.60. For AAAA, the GLP-1 secretion stimulation result in the experiment with EECs [1] is on record as “able to stimulate GLP-1 secretion”. For the molecule ANVST, the GLP-1 secretion stimulation entry with EECs [1] (setting [5]) is recorded as “able to stimulate the secretion of GLP-1”. On to ASDKPYIL [α-actinin-2 derived peptide], for which the GLP-1 secretion stimulation entry in the experiment on murine GLUTag cells was “also active”. Regarding CSSGGY [CSSGGY], the pIC50 at Caco-2 DPP-IV activity was 2.67.

As for CSSGK [CSSGK], the pIC50 at Caco-2 DPP-IV activity was less than 2.60.

Take ELLK: the “active GLP-1 release stimulation by synthetic peptide” value in the experiment with STC-1 cells [2] is listed as “did not lead to GLP-1 secretion”.

Regarding GGGG, in the experiment with EECs [1], the GLP-1 secretion stimulation result is given as “able to stimulate GLP-1 secretion”. As to “GPVRGPFPIIV [literature GLP-1 stimulating peptide]”, in the experiment with EECs [1], the GLP-1 secretion stimulation entry is listed as “able to stimulate GLP-1 secretion”. In the case of GWGG, the GLP-1 secretion stimulation result with EECs [1] is reported as “able to stimulate GLP-1 secretion”.

On to KAAVT, for which the GLP-1 secretion stimulation entry with EECs [1] (setting [5]) is on record as “able to stimulate the secretion of GLP-1”. Consider KPYIL, for which the GLP-1 secretion stimulation entry with murine GLUTag cells is “able to stimulate the GLP-1 secretion in murine GLUTag cells”. In the case of LGG, the GLP-1 secretion stimulation result in the experiment on EECs [1] is listed as “able to stimulate GLP-1 secretion”. Take LKPT: the “active GLP-1 release stimulation by synthetic peptide” value in the experiment with STC-1 cells [2] is “able to significantly stimulate active-GLP-1 release”.

With “LLVVYPWT [hemorphin released during bovine hemoglobin digestion]”, the GLP-1 secretion stimulation result in the experiment on EECs [1] (setting [6]) was “CCK and GLP-1 secretion stimulating peptides”. Further, the CCK secretion stimulation entry in the experiment with EECs [3] is “CCK and GLP-1 secretion stimulating peptides”. Consider “LVVYPWT [hemorphin released during bovine hemoglobin digestion]”, for which, in the experiment with EECs [1] (setting [6]), the GLP-1 secretion stimulation result was “CCK and GLP-1 secretion stimulating peptides”. For the same molecule, the CCK secretion stimulation result in the experiment with EECs [3] is “CCK and GLP-1 secretion stimulating peptides”.

For PFL, the GLP-1 secretion stimulation result in the experiment with EECs [1] (setting [7]) is reported as “able to stimulate GLP-1 secretion”. For “RVASMASEKM [peptide from egg white protein digest]”, in the experiment on EECs [1] (setting [7]), the GLP-1 secretion stimulation entry is “GLP-1 secretagogue”. TKAVEH: the GLP-1 secretion stimulation entry in the experiment with EECs [1] (setting [5]) was “able to stimulate the secretion of GLP-1”.

For VADTMEVV, the pIC50 in the experiment with DPP-IV was 3.22. On to VAPEEHPT, for which, at Caco-2 DPP-IV activity, the pIC50 was 2.64.

As to VDAGAP [VDAGAP], the negative logarithm of the IC50 (pIC50) on Caco-2 DPP-IV activity was less than 2.60.

As for VLLPD, the CCK secretion stimulation result with STC-1 cells [4] was “able to stimulate CCK secretion in STC-1 cells”. Turning to “VLLPDEVSGL [peptide from egg white SGID intestinal digest]”, the CCK secretion stimulation entry in the experiment with STC-1 cells [4] is on record as “able to stimulate CCK secretion in STC-1 cells”.

VVYPWT: the GLP-1 secretion stimulation entry in the experiment on EECs [1] (setting [6]) is “CCK and GLP-1 secretion stimulating peptides”. In addition, in the experiment with EECs [3], the CCK secretion stimulation result is “CCK and GLP-1 secretion stimulating peptides”. Turning to “VVYPWTQRF [hemorphin released during bovine hemoglobin digestion]”, the GLP-1 secretion stimulation entry in the experiment with EECs [1] (setting [6]) is “CCK and GLP-1 secretion stimulating peptides”. For the same molecule, the CCK secretion stimulation result in the experiment with EECs [3] was “CCK and GLP-1 secretion stimulating peptides”.

On to YGAE, for which the GLP-1 secretion stimulation entry in the experiment with EECs [1] (setting [5]) is on record as “able to stimulate the secretion of GLP-1”.
